Read-outs that look alike come from different tables or passages of the source.
Columns and labels:
S. aureus T28.1 (MRSA) = test: Broth microdilution MIC; assay type: cell-based, Staphylococcus aureus
Procedure: (§1) The protocol employed was inspired by Abedini et al. with some modifications. Products were solubilized in DMSO and serially diluted two-fold in MH medium. A bacterial suspension at 10^5 CFU/mL was added to obtain a final volume of 200 µL. Final phenolic product concentrations in wells ranged from 625 to 2.4 µg/mL (exception for lupulone for which dilutions were continued until 0.3 µg/mL). […] Plates were incubated overnight with stirring (60 rpm) at 37 °C.
For the following experiments, the MRSA strain T28.1, isolated from a pathological sample of osteitis, was used. It was previously characterized by DNA biochips, which allowed highlighting some β-lactamases and the SCC-mec genes confirming the methicillin resistance. Moreover, genes for enzymes and proteins involved in the capsule biosynthesis (capH5, capJ5 and capK5) and several intracellular adhesion proteins implicated in biofilm formation (icaA, icaC and icaD) were present.

S. aureus 08143 (MSSA) = test: Broth microdilution MIC; assay type: cell-based, Staphylococcus aureus; details: S. aureus 08143 (MSSA)
Procedure: as §1

S. aureus T25.10 (MRSA) = test: Broth microdilution MIC; assay type: cell-based, Staphylococcus aureus; details: S. aureus T25.10 (MRSA)
Procedure: as §1

S. aureus T26A4 (MSSA) = test: Broth microdilution MIC; assay type: cell-based, Staphylococcus aureus; details: S. aureus T26A4 (MSSA)
Procedure: as §1

S. aureus T28.1 = test: Post-antibiotic effect (PAE); assay type: cell-based, Staphylococcus aureus; details: for Maximum Growth Retardation: 2 h exposure
Procedure: This method allows quantifying the delayed regrowth of a bacterial population following exposure to an active compound [76]. Stock solutions of xanthohumol, desmethylxanthohumol and lupulone were prepared in DMSO 20 times more concentrated than the desired final concentrations (MIC/4 to 4 × MIC). A 2 h pre-treatment with purified prenylated compounds was performed using 8.5 mL of BHI medium, 0.5 mL of purified product in DMSO and 1 mL of a bacterial suspension at 10^5 CFU/mL, incubated at 37 °C. […] The hop compound was then inactivated by a 1000-fold dilution. After inactivation, a growth curve was performed with counts at 30 min and every 2 h. The growth lag was quantified by comparison with the control, using the following formula: PAE=T−C
T is the time needed for the bacterial population to grow by 1 log(CFU/mL) at the given concentration, C is the corresponding time for the control (Figure 5)

S. aureus T28.1 biofilm [1] = test: Anti-biofilm: biofilm formation on artificial surface; assay type: cell-based, Staphylococcus aureus
Procedure: (§2) These experiments were inspired and adapted from Liu et al.. They were performed using a 96-well microplate with a flat bottom.
First, the effect of xanthohumol, desmethylxanthohumol and lupulone was assessed on the biofilm formation: 180 µL of BHI medium containing glucose at 10 mg/mL was added to each well of a 96-well microplate with 10 µL of the product previously solubilized in DMSO and 10 µL of a 10^5 CFU/mL bacterial suspension. The maximum concentration in DMSO was 5%. Final concentrations of purified products were from MIC/4 to 4 × MIC. After 24 h incubation at 37 °C, wells were voided and washed 3 times with phosphate buffered saline solution (PBS, Sigma-Aldrich, Saint-Quentin Fallavier, France). Plates were then dried and 150 µL of crystal violet solution at 20 mg/mL in MeOH (Sigma-Aldrich®, Saint-Quentin Fallavier, France) were added for 15 min. After removing crystal violet, 150 µL of EtOH were added to solubilize crystal violet present in adherent bacteria. The optical density was read at 570 nm.

S. aureus T28.1 biofilm [2] = test: Anti-biofilm: destruction of preformed biofilm on artificial surface; assay type: cell-based, Staphylococcus aureus
Procedure: as §2
The effect was also evaluated after the biofilm formation in order to evaluate if the hop phenolic compounds are able to destroy it. A first culture of 24 h at 37 °C with 190 µL of BHI medium and 10 µL of a 10^5 CFU/mL bacterial suspension allowed producing the biofilm. Wells were voided and washed with PBS. The biofilm was then treated with xanthohumol, desmethylxanthohumol or lupulone diluted at 5% in the BHI medium to obtain a final volume of 200 µL. Plates were incubated for 24 h at 37 °C, then voided and colored with crystal violet as above.

[3] = test system: Hep-G2 cells (hepatocellular carcinoma); test: Cytotoxicity / antiproliferative effect; assay type: cell-based, human
Procedure: (§3) Several human cell lines were used for the cytotoxic bioassays: non-cancer lung fibroblasts (WI-38), hepatocellular carcinoma (Hep-G2), osteosarcoma (MG-63) and the mouse monocyte macrophage J774. Cells were seeded into wells of a 96-well microplate in a Gibco™ Dulbecco’s modified eagles medium (DMEM), except for MG-63 which were cultivated in a minimum essential medium (MEM) (ThermoFisher Scientific, Illkirch-Graffenstaden, France). Both media were enriched with 10% FBS (ThermoFisher Scientific, France) and some antibiotics (mixture penicillin/streptomycin 100 UI/mL, Sigma Aldrich). After one or two days at 37 °C (5% of CO2), wells were emptied by suction. Cells were then treated with hops compounds (xanthohumol, desmethylxanthohumol, humulone, lupulone) in DMSO at 0.2% in the culture medium, to obtain a final volume of 100 µL in wells (negative control: 0.2% DMSO). Camptothecin was used as a positive control. After 48 to 72 h exposure, culture medium was replaced by 10% of Alamar blue or 3-(4,5-dimethylthiazol-2-yl)-2,5-diphenyltetrazolium bromide (MTT) in the medium (ThermoFisher Scientific®, Illkirch, France) and plates were incubated the time necessary to the reaction. Results were measured respectively by fluorescence (excitation 530 nm and emission 590 nm) or by optical density at 550 nm. The IC50 of each product was determined using GraphPad Prism (version 5.01).

[4] = test system: WI-38 cells (non-cancer lung fibroblasts); test: Cytotoxicity / antiproliferative effect; assay type: cell-based, human
Procedure: as §3

[5] = Staphylococcus aureus, S. aureus T28.1 (MRSA), read-out: MIC
[6] = Staphylococcus aureus, S. aureus T28.1 (MRSA), value in parentheses, read-out: MIC
[7] = Staphylococcus aureus, read-out: MIC
[8] = Staphylococcus aureus, value in parentheses, read-out: MIC
[9] = Homo sapiens, HepG2, read-out: IC50 ± SD
[10] = Homo sapiens, HepG2, value in parentheses, read-out: IC50 (converted)
[11] = Homo sapiens, read-out: IC50 ± SD
[12] = Homo sapiens, value in parentheses, read-out: IC50 (converted)
[13] = value in parentheses, read-out: MIC
[14] = value in parentheses, read-out: IC50 (converted)

Row | Compound | MIC (S. aureus T28.1 (MRSA); [5]) [µg/mL] | MIC (S. aureus T28.1 (MRSA); [6]) [µM] | MIC (S. aureus 08143 (MSSA); [7]) [µg/mL] | MIC (S. aureus 08143 (MSSA); [8]) [µM] | MIC (S. aureus T25.10 (MRSA); [7]) [µg/mL] | MIC (S. aureus T25.10 (MRSA); [8]) [µM] | MIC (S. aureus T26A4 (MSSA); [7]) [µg/mL] | MIC (S. aureus T26A4 (MSSA); [8]) [µM] | Maximum Growth Retardation (S. aureus T28.1; 2 × MIC) [h] | Maximum Growth Retardation (S. aureus T28.1; 4 × MIC) [h] | Maximum Growth Retardation (S. aureus T28.1; MIC/2) [h] | Maximum Growth Retardation (S. aureus T28.1; MIC) [h] | Biofilm formation on artificial surface (S. aureus T28.1 biofilm [1]; sub-inhibitory concentrations) | Biofilm destruction (S. aureus T28.1 biofilm [2]; MIC/4) [%] | IC50 [3, 9] [µg/mL] | IC50 [3, 10] [µM] | IC50 [4, 11] [µg/mL] | IC50 [4, 12] [µM] | further results
1 | CC(C)=CCc1c(O)cc(O)c(C(=O)/C=C/c2ccc(O)cc2)c1O [DMX, desmethylxanthohumol] | 39 | 115 | 39 | 115 | 19.5 | 57.3 | 39 | 115 | 2.29 | 2.34 | 2.10 | 2.32 | significant inhibition | 81 | 22.4 ± 2.9 | 65.9 | 60.7 ± 2.5 | 178 | 
2 | COc1cc(O)c(CC=C(C)C)c(O)c1C(=O)/C=C/c1ccc(O)cc1 [XN, xanthohumol] | 9.8 | 27.7 | 19.5 | 55 | 9.8 | 27.7 | 9.8 | 27.7 | 2.05 | 3.29 | 1.34 | 2.23 |  |  | 2.5 ± 0.8 | 7.1 | 6.9 ± 0.5 | 19.5 | Biofilm formation on artificial surface (S. aureus T28.1 biofilm [1]; at the MIC): totally inhibited; Inhibition of biofilm formation (S. aureus T28.1 biofilm [1]; at the MIC): ~100%; Biofilm destruction (S. aureus T28.1 biofilm [2]; at the MIC and above): non-dose-dependent activity
3 | lupulone |  |  |  |  |  |  |  |  |  | 0.47 | 0.26 | 0.53 | significant inhibition | 62.8 |  |  |  |  | MIC (S. aureus T28.1 (MRSA); S. aureus T28.1 (MRSA)): 1.2 µg/mL; MIC (S. aureus T28.1 (MRSA); S. aureus T28.1 (MRSA), value in parentheses, read-out: MIC): 2.9 µM; MIC (S. aureus T28.1 (MRSA); strain MRSA T28.1): 1.2 µg/mL; MIC (S. aureus 08143 (MSSA)): 1.2 µg/mL; MIC (S. aureus 08143 (MSSA); [13]): 2.9 µM; MIC (S. aureus T25.10 (MRSA)): 0.6 µg/mL; MIC (S. aureus T25.10 (MRSA); [13]): 1.45 µM; MIC (S. aureus T26A4 (MSSA)): 0.6 µg/mL; MIC (S. aureus T26A4 (MSSA); [13]): 1.45 µM; Maximum delay after inactivation (S. aureus T28.1; over all concentrations): ~55 min; IC50 ± SD [3]: 1.2 ± 0.5 µg/mL; IC50 [3, 14]: 2.9 µM; IC50 ± SD [4]: 1.1 ± 0.0 µg/mL; IC50 [4, 14]: 2.6 µM

From PMC6472001, “Phenolic Compounds from Humulus lupulus as Natural Antimicrobial Products: New Weapons in the Fight against Methicillin Resistant Staphylococcus aureus, Leishmania mexicana and Trypanosoma brucei Strains” (Molecules, 2019)
